From patent US6660910B1, “Selection marker” (Syngenta Mogen B.V., priority 1997, dated 2003)

What was measured:
[1] = tested on: root segments of Arabidopsis thaliana cv. C24; assay: Arabidopsis root transformation with selection on cyanamide or kanamycin; type: cell-based; settings: for Percentage of GUS expressing plants (% of plants staining blue): treatment kanamycin 50 mg/litre; for % Shoots rooting / Nr. of plants (shoots developed into plants and able to root): selection kanamycin 50 mg/litre, rooting medium 25 mg/litre Kanamycin
Experimental: Described below is the method used for transformation of root segments of Arabidopsis thaliana cv. C24 using Agrobacterium tumefaciens. The binary vectors for this transformation method are identical to those described above.
Six mg of Arabidopsis seeds were germinated in a flask containing liquid Germination Medium (GM) under 16 h light period (1700 lux) at 24° C. and a 8 h dark period at 21° C. at 80 rpm. (The contents of various media can be found in Table 4). Roots of 9 days old seedlings were isolated in a sterile petridish and collected in a drop of Germination Medium (GM). Roots were cut in segments of approximately 3-5 mm and approximately 100 explants were spread evenly on a nylon membrane (O 8 cm) which was placed on plates containing Callus Inducing Medium (CIM). The plates were incubated 3 days under the same conditions as described above.
The Agrobacterium strain used in this study harbored a rifampicin selection marker in a C 58 chromosomal background. The construction of the helper strain MOG101 is described by Hood et al. (1993).
Agrobacteria were grown overnight in LB medium with antibiotics (rifampicin 20 mg/l, kanamycin 100 mg/l). The overnight culture was diluted 1:10 in LB without antibiotics and grown for approximately 3 hours. Bacterial suspensions were centrifuged at 1600×g for 15 minutes at room temperature. Bacteria were resuspended in GM and adjusted to OD600=0.1 and used for cocultivation.
The membrane containing approximately 100 explants was incubated for 2 minutes with the Agrobacterium suspension and dried on sterile filter paper to remove excess of bacteria. The membrane with explants are cultured for 48 h on CIM plates. After rinsing the membrane and explants with liquid GM these were incubated on Shoot Induction Medium (SIM) plates containing several concentrations of cyanamide or kanamycin. After 5 days the membrane with the explants was transferred to the same medium (SIM) for subculture. The second subculture was after 2 weeks. Approximately four weeks after cocultivation 60 shoots per cyanamide concentration were excised and placed on plates with Shoot Elongation Medium (SEM) containing 30 mg/l cyanamide. Shoots which were able to root are tested on their transgenic character by testing leaflets and flowers for expression of the gus gene using a histochemical GUS assay.
Three experiments were performed. Shoots obtained from Exp. 98-8 and 98-11 were transferred to rooting medium (SEM) containing 30 mg/litre cyanamide. Shoots obtained from Exp. 98-13 were transferred to rooting medium containing the same concentration as the selection medium (SIM), for results see Table 4a. The shoots obtained from the kanamycin selection (50 mg/litre) were transferred to rooting medium containing 25 mg/litre Kanamycin.

[2] = tested on: cotyledons of Lycopersicon esculentum cv. Money Maker; assay: Transformation of tomato cotyledon explants with selection on cyanamide or kanamycin; type: cell-based; settings: Kanamycin 100 mg/l during regeneration; for No. of rooting shoots: rooting medium 30 mg/l kanamycin
Experimental: Described below is the method used for transformation of cotyledons of Lycopersicon esculentum cv. Money Maker using Agrobacterium tumefaciens. The binary vectors and Agrobacteria strains for this transformation method are identical to those described above. Tomato seedlings were germinated on Germination Medium (GEM) under a 16 h light period (1700 lux) at 24° C. and a 8 h dark period at 21° C. (The contents of the various media can be found in Table 4). Cotyledon explants of 5 to 7 day old seedlings were cut on sterile filter paper soaked with Washing Medium (WAM) and placed on plates containing Cocultivation Medium (COM). The plates, each containing approximately 50 explants, were incubated overnight under the same conditions as described above.
The pre incubated explants were carefully submerged in the Agrobacterium inoculum for 20 minutes.
The explants were then blotted dry on sterile filter paper and incubated for 48 h on the second set of Cocultivation plates. In procession the explants were incubated for 72 h on plates containing Postcultivation Medium (POM) after which the explants were transferred to Shoot inducing Medium (SIM) containing several concentrations of cyanamide or kanamycin. Every three weeks the explants were subcultured on the same medium. After approximately 8-12 weeks shoots were excised and placed on Root inducing Medium (RIM). Shoots that were able to root were then transferred to Root inducing Medium containing 50 mg/l cyanamide or 30 mg/l kanamycin. Simultaneously leaflets of the rooted shoots were tested for expression of the gus gene in a histochemical GUS assay.

[3] = pMOG410 (gus-nptII), 30 inoculated explants
[4] = pMOG874 (cah-nptII), 35 inoculated explants
[5] = pMOG1156 (gus-nptII-cah), 30 inoculated explants

Structure (SMILES): NC[C@H]1O[C@H](O[C@H]2[C@H](O)[C@@H](O[C@H]3O[C@H](CO)[C@@H](O)[C@H](N)[C@H]3O)[C@H](N)C[C@@H]2N)[C@H](O)[C@@H](O)[C@@H]1O [Kanamycin]
- Percentage of GUS expressing plants (% of plants staining blue) ([1]; pMOG 410, shoots rooted on Kanamycin 25 mg/litre): 100^2%
- % Shoots rooting ([1]; pMOG 1156, Experiment 98-8): 46.8%
- Nr. of plants (shoots developed into plants and able to root) ([1]; pMOG 1156, Experiment 98-8): 29
- % Shoots rooting ([1]; pMOG 1156, Experiment 98-11): 47.5%
- Nr. of plants (shoots developed into plants and able to root) ([1]; pMOG 1156, Experiment 98-11): 19
- % Shoots rooting ([1]; pMOG 1156, Experiment 98-13): 20.6%
- Nr. of plants (shoots developed into plants and able to root) ([1]; pMOG 1156, Experiment 98-13): 14
- Percentage of GUS expressing plants (% of plants staining blue) ([1]; pMOG 1156, column headed C30 in rooting medium): 82-92%
- No. of excised shoots [2, 3]: 4
- No. of gus + shoots [2, 3]: 3
- No. of rooting shoots [2, 3]: 3
- No. of excised shoots [2, 4]: 4
- No. of rooting shoots [2, 4]: 1
- No. of excised shoots [2, 5]: 5
- No. of gus + shoots [2, 5]: 4
- No. of rooting shoots [2, 5]: 3
